Columns and labels:
Assay type in all cases: functional
Mus musculus [1] = species: Mus musculus; assay: Tested for antagonism of bicuculline-induced tonic-extensor convulsions (B) in mice
Mus musculus [2] = species: Mus musculus; assay: Tested for antagonism of nicotine-induced death (D) in mice
Mus musculus [3] = species: Mus musculus; assay: Tested for potentiation of gamma-butyrolactone induced sleep (gamma-B) in mice
Mus musculus [4] = species: Mus musculus; assay: Tested for antagonism of nicotine-induced tonic extensor convulsions (TE) in mice
Mus musculus [5] = species: Mus musculus; assay: Tested for antagonism of oxotremorine hypothermia (OX) in mice
Mus musculus [6] = species: Mus musculus; assay: Tested for potentiation of yohimbine toxicity in aggregated mice(Y)
Mus musculus [7] = species: Mus musculus; assay: Prolongation of hypoxic survival time (HS) in mice
Mus musculus [8] = species: Mus musculus; assay: Tested for antagonism of pentylenetetrazole-induced clonic convulsions (P) in mice
Mus musculus [9] = species: Mus musculus; assay: Tested for stereotyped gnawing and licking behavior of mice pretreated with apomorphine (AG)

Structure (SMILES) | ED50 (Mus musculus [1]) [mg/kg] | ED50 (Mus musculus [2]) [mg/kg] | ED50 (Mus musculus [3]) [mg/kg] | ED50 (Mus musculus [4]) [mg/kg] | ED50 (Mus musculus [5]) [mg/kg] | ED50 (Mus musculus [6]) [mg/kg] | ED50 (Mus musculus [7]) [mg/kg] | ED50 (Mus musculus [8]) [mg/kg] | ED50 (Mus musculus [9]) [mg/kg]
CCN(CC)CCc1nnc2n1-c1ccc(Cl)cc1C(c1ccccc1)=NC2 | > 50 | 2 | 15 | 2 | 42 | > 50 | 40 | 25 | > 50
CN(C)Cc1nnc2n1-c1ccc(Cl)cc1C(c1ccccc1Cl)=NC2 | 0.8 | 0.06 | 0.3 | 0.06 | > 30 | > 30 | 0.1 | 0.1 | 17.8
C=CCNCc1nnc2n1-c1ccc(Cl)cc1C(c1ccccc1)=NC2 | 3.1 | 0.28 | 1.9 | 0.55 | > 50 | > 50 | 6 | 3.7 | > 50
CN(C)CCc1nnc2n1-c1ccc(Cl)cc1C(c1ccccc1Cl)=NC2 | 0.5 | 0.28 | 0.4 | 0.28 | > 50 | 29.7 | 1.3 | 0.3 | 6.3
C#CCNCc1nnc2n1-c1ccc(Cl)cc1C(c1ccccc1)=NC2 | 1.6 | 1.4 | 0.7 | 1.4 | > 50 | 21 | 30 | 3.1 | > 50
CC(N)Cc1nnc2n1-c1ccc(Cl)cc1C(c1ccccc1)=NC2 (stereo not given) | > 50 | 32 | 35 | 18 | 4.4 | 21 | > 50 | > 50 | 25
Clc1ccc2c(c1)C(c1ccccc1)=NCc1nnc(CN3CCCC3)n1-2 | 12.5 | 4.5 | 7.4 | 3.6 | 56 | 100 | 2 | 17.7 | 14.9
CN1C(=O)CN=C(c2ccccc2)c2cc(Cl)ccc21 [DIAZEPAM] | 2.6 | 0.28 | 0.035 | 0.28 | > 50 | > 50 | 0.2 | 0.1 | > 50
CCN(CC)CCCc1nnc2n1-c1ccc(Cl)cc1C(c1ccccc1)=NC2 | > 100 | 13 | > 100 | 11 | 31.6 | 56 | > 50 | > 100 | 100
CN(Cc1nnc2n1-c1ccc(Cl)cc1C(c1ccccc1)=NC2)C1CC1 | 3.1 | 0.28 | 1.9 | 0.55 | > 50 | > 50 | 6 | 3.7 | > 50
CN(C)CCCc1nnc2n1-c1ccc(Cl)cc1C(c1ccccc1)=NC2 | 56 | 10 | 36.6 | 10 | 75 | > 100 | > 50 | 13.3 | 42
CN(Cc1nnc2n1-c1ccc(Cl)cc1C(c1ccccc1)=NC2)CC1CC1 | 2.6 | 0.6 | 1.1 | 0.4 | > 50 | > 50 | 30 | 3.1 | > 50
C#CCNC(C)c1nnc2n1-c1ccc(Cl)cc1C(c1ccccc1)=NC2 (stereo not given) | 1.6 | 1.1 | 0.8 | 1.1 | > 50 | 21 | 20 | 3.1 | > 50
Clc1ccc2c(c1)C(c1ccccc1)=NCc1nnc(CCCN3CCOCC3)n1-2 | 7.1 | 5.6 | 10 | 5.6 | > 50 | > 50 | 7 | 10 | > 50
NCCc1nnc2n1-c1ccc(Cl)cc1C(c1ccccc1Cl)=NC2 | 25 | 4.5 | 21 | 4.5 | 29.7 | > 50 | > 50 | 21 | 14.9
CN(C)Cc1nnc2n1-c1ccc(Br)cc1C(c1ccccn1)=NC2 | 1.3 | 1 | 1.3 | 1 | 12.5 | 29.7 | 30 | 1.9 | > 50
CN(C)Cc1nnc2n1-c1ccc(Cl)cc1C(c1ccccc1)NC2 (stereo not given) | 42 | 25 | 5.3 | 25 | > 50 | > 50 | > 50 | 14.9 | > 50
NCc1nnc2n1-c1ccc(Cl)cc1C(c1ccccc1)=NC2 | 14.9 | 0.28 | 0.8 | 0.22 | 29.7 | 35.4 | 0.8 | 0.35 | 2.6
NCCc1nnc2n1-c1ccc(Cl)cc1C(c1ccccc1)=NC2 | 17.7 | 6.3 | 7.4 | 7.1 | 4.4 | 50 | > 50 | 10.5 | 35
Clc1ccc2c(c1)C(c1ccccc1)=NCc1nnc(CCCN3CCCC3)n1-2 | > 50 | 16 | 35.4 | 14 | > 50 | 42 | > 50 | 4.4 | 25
CC(c1nnc2n1-c1ccc(Cl)cc1C(c1ccccc1)=NC2)N(C)C (stereo not given) | 12.5 | 5 | 17.7 | 5 | 10.5 | 17.7 | > 50 | 17.7 | 21
C=CCN(C)Cc1nnc2n1-c1ccc(Cl)cc1C(c1ccccc1)=NC2 | 3.7 | 1.1 | 1.6 | 1.1 | > 50 | > 50 | > 50 | 4.4 | > 50
CNC(C)c1nnc2n1-c1ccc(Cl)cc1C(c1ccccc1)=NC2 (stereo not given) | 9 | 1 | 3.7 | 0.9 | > 50 | 30 | 0.5 | 4.4 | 50
CN(C)Cc1nnc2n1-c1ccccc1C(c1ccccc1)=NC2 | 50 | 2.8 | 6.2 | 2.5 | 12.5 | 35.4 | > 50 | 6.2 | 3.1
C#CCN(C)Cc1nnc2n1-c1ccc(Cl)cc1C(c1ccccc1Cl)=NC2 | 0.1 | 0.045 | 0.1 | 0.036 | > 50 | > 50 | 0.4 | 0.021 | 21
